Bridge positions count the residues as written; N and C are the ends. Ends that are not written are not given here.
Test system: patients with chronic idiopathic constipation (CIC)
Test: Second phase 3 CIC trial: change from baseline in stool consistency (BSFS)
Assay type: in vivo, human
[1] = 3 mg, Week 7, All Randomized (includes Duplicate Patients)
[2] = 3 mg, Week 7, ITT Population-Excluding Duplicate Patients
[3] = 3 mg, Week 8, All Randomized (includes Duplicate Patients)
[4] = 3 mg, Week 8, ITT Population-Excluding Duplicate Patients
[5] = 3 mg, Week 9, All Randomized (includes Duplicate Patients)
[6] = 3 mg, Week 9, ITT Population-Excluding Duplicate Patients
[7] = 3 mg, Week 10, All Randomized (includes Duplicate Patients)
[8] = 3 mg, Week 10, ITT Population-Excluding Duplicate Patients
[9] = 3 mg, Week 11, All Randomized (includes Duplicate Patients)
[10] = 3 mg, Week 11, ITT Population-Excluding Duplicate Patients
[11] = 3 mg, Week 12, All Randomized (includes Duplicate Patients)
[12] = 3 mg, Week 12, ITT Population-Excluding Duplicate Patients
[13] = 3 mg, overall average estimate across the 12-week treatment period, All Randomized (includes Duplicate Patients)
[14] = 3 mg, overall average estimate across the 12-week treatment period, ITT Population
[15] = 3 mg, overall average estimate across the 12-week treatment period, ITT Population-Excluding Duplicate Patients
[16] = 6 mg, Post-Treatment Week 13, All Randomized (includes Duplicate Patients)
[17] = 6 mg, Post-Treatment Week 13, ITT Population
[18] = 6 mg, Post-Treatment Week 13, ITT Population-Excluding Duplicate Patients
[19] = 6 mg, Post-Treatment Week 14, All Randomized (includes Duplicate Patients)
[20] = 6 mg, Post-Treatment Week 14, ITT Population

Asn^1-Asp^2-Glu^3-Cys^4-Glu^5-Leu^6-Cys^7-Val^8-Asn^9-Val^10-Ala^11-Cys^12-Thr^13-Gly^14-Cys^15-Leu^16 (NDECELCVNVACTGCL; disulfide 4-12, 7-15) [Plecanatide, uroguanylin analogue, guanylate cyclase-C agonist; (C4:C12, C7:C15) bicycle peptide]
Change from Baseline in Stool Consistency, Difference from Placebo [1]: 0.60 | Change from Baseline in Stool Consistency, LS Mean (SE) [1]: 1.46 (0.072) | Change from Baseline in Stool Consistency, Difference from Placebo (3 mg, Week 7, ITT Population): 0.60 | Change from Baseline in Stool Consistency, LS Mean (SE) (3 mg, Week 7, ITT Population): 1.49 (0.074) | Change from Baseline in Stool Consistency, Mean (SD) (3 mg, Week 7, ITT Population): 1.58 (1.447) | Change from Baseline in Stool Consistency, Difference from Placebo [2]: 0.61 | Change from Baseline in Stool Consistency, LS Mean (SE) [2]: 1.50 (0.075) | Change from Baseline in Stool Consistency, Mean (SD) [2]: 1.60 (1.452) | Change from Baseline in Stool Consistency, Difference from Placebo [3]: 0.67 | Change from Baseline in Stool Consistency, LS Mean (SE) [3]: 1.58 (0.072) | Change from Baseline in Stool Consistency, Difference from Placebo (3 mg, Week 8, ITT Population): 0.66 | Change from Baseline in Stool Consistency, LS Mean (SE) (3 mg, Week 8, ITT Population): 1.60 (0.075) | Change from Baseline in Stool Consistency, Mean (SD) (3 mg, Week 8, ITT Population): 1.71 (1.496) | Change from Baseline in Stool Consistency, Difference from Placebo [4]: 0.67 | Change from Baseline in Stool Consistency, LS Mean (SE) [4]: 1.60 (0.075) | Change from Baseline in Stool Consistency, Mean (SD) [4]: 1.71 (1.500) | Change from Baseline in Stool Consistency, Difference from Placebo [5]: 0.68 | Change from Baseline in Stool Consistency, LS Mean (SE) [5]: 1.55 (0.073) | Change from Baseline in Stool Consistency, Difference from Placebo (3 mg, Week 9, ITT Population): 0.68 | Change from Baseline in Stool Consistency, LS Mean (SE) (3 mg, Week 9, ITT Population): 1.57 (0.075) | Change from Baseline in Stool Consistency, Mean (SD) (3 mg, Week 9, ITT Population): 1.68 (1.468) | Change from Baseline in Stool Consistency, Difference from Placebo [6]: 0.66 | Change from Baseline in Stool Consistency, LS Mean (SE) [6]: 1.57 (0.076) | Change from Baseline in Stool Consistency, Mean (SD) [6]: 1.68 (1.468) | Change from Baseline in Stool Consistency, Difference from Placebo [7]: 0.62 | Change from Baseline in Stool Consistency, LS Mean (SE) [7]: 1.52 (0.073) | Change from Baseline in Stool Consistency, Difference from Placebo (3 mg, Week 10, ITT Population): 0.61 | Change from Baseline in Stool Consistency, LS Mean (SE) (3 mg, Week 10, ITT Population): 1.54 (0.075) | Change from Baseline in Stool Consistency, Mean (SD) (3 mg, Week 10, ITT Population): 1.65 (1.539) | Change from Baseline in Stool Consistency, Difference from Placebo [8]: 0.61 | Change from Baseline in Stool Consistency, LS Mean (SE) [8]: 1.54 (0.076) | Change from Baseline in Stool Consistency, Mean (SD) [8]: 1.65 (1.548) | Change from Baseline in Stool Consistency, Difference from Placebo [9]: 0.55 | Change from Baseline in Stool Consistency, LS Mean (SE) [9]: 1.48 (0.073) | Change from Baseline in Stool Consistency, Difference from Placebo (3 mg, Week 11, ITT Population): 0.54 | Change from Baseline in Stool Consistency, LS Mean (SE) (3 mg, Week 11, ITT Population): 1.50 (0.075) | Change from Baseline in Stool Consistency, Mean (SD) (3 mg, Week 11, ITT Population): 1.58 (1.598) | Change from Baseline in Stool Consistency, Difference from Placebo [10]: 0.54 | Change from Baseline in Stool Consistency, LS Mean (SE) [10]: 1.51 (0.076) | Change from Baseline in Stool Consistency, Mean (SD) [10]: 1.59 (1.595) | Change from Baseline in Stool Consistency, Difference from Placebo [11]: 0.57 | Change from Baseline in Stool Consistency, LS Mean (SE) [11]: 1.57 (0.073) | Change from Baseline in Stool Consistency, Difference from Placebo (3 mg, Week 12, ITT Population): 0.58 | Change from Baseline in Stool Consistency, LS Mean (SE) (3 mg, Week 12, ITT Population): 1.60 (0.075) | Change from Baseline in Stool Consistency, Mean (SD) (3 mg, Week 12, ITT Population): 1.69 (1.480) | Change from Baseline in Stool Consistency, Difference from Placebo [12]: 0.58 | Change from Baseline in Stool Consistency, LS Mean (SE) [12]: 1.61 (0.076) | Change from Baseline in Stool Consistency, Mean (SD) [12]: 1.70 (1.476) | Change from Baseline in Stool Consistency, Difference from Placebo [13]: 0.63 | Change from Baseline in Stool Consistency, LS Mean (SE) [13]: 1.48 (0.058) | Change from Baseline in Stool Consistency, Difference from Placebo [14]: 0.62 | Change from Baseline in Stool Consistency, LS Mean (SE) [14]: 1.49 (0.060) | Change from Baseline in Stool Consistency, Difference from Placebo [15]: 0.62 | Change from Baseline in Stool Consistency, LS Mean (SE) [15]: 1.50 (0.061) | Change from Baseline in Stool Consistency, Difference from Placebo [16]: 0.09 | Change from Baseline in Stool Consistency, LS Mean (SE) [16]: 1.08 (0.070) | Change from Baseline in Stool Consistency, Mean (SD) [16]: 1.03 (1.408) | Change from Baseline in Stool Consistency, Difference from Placebo [17]: 0.09 | Change from Baseline in Stool Consistency, LS Mean (SE) [17]: 1.08 (0.071) | Change from Baseline in Stool Consistency, Mean (SD) [17]: 1.04 (1.410) | Change from Baseline in Stool Consistency, Difference from Placebo [18]: 0.09 | Change from Baseline in Stool Consistency, LS Mean (SE) [18]: 1.08 (0.072) | Change from Baseline in Stool Consistency, Mean (SD) [18]: 1.04 (1.414) | Change from Baseline in Stool Consistency, Difference from Placebo [19]: 0.07 | Change from Baseline in Stool Consistency, LS Mean (SE) [19]: 1.06 (0.072) | Change from Baseline in Stool Consistency, Mean (SD) [19]: 1.04 (1.393) | Change from Baseline in Stool Consistency, Difference from Placebo [20]: 0.06 | Change from Baseline in Stool Consistency, LS Mean (SE) [20]: 1.07 (0.074) | Change from Baseline in Stool Consistency, Mean (SD) [20]: 1.06 (1.354) | Change from Baseline in Stool Consistency, Difference from Placebo (6 mg, Post-Treatment Week 14, ITT Population-Excluding Duplicate Patients): 0.06

— US20160367623A1, “AGONISTS OF GUANYLATE CYCLASE USEFUL FOR THE TREATMENT OF GASTROINTESTINAL DISORDERS, INFLAMMATION, CANCER AND OTHER DISORDERS” (priority 2015, published 2016)
